Each structure is given as a SMILES string. Values joined by “and” are separate entries in the source; they are usually repeats but may differ in a detail not shown here. Identical values can stand only once.

The values below come from paper PMC10223284, “Category-Based Toxicokinetic Evaluations of Data-Poor Per- and Polyfluoroalkyl Substances (PFAS) using Gas Chromatography Coupled with Mass Spectrometry” (Toxics, 2023).

Data set [1] is described as follows: Abiotic loss in negative controls of the hepatocyte clearance assay (cell-free media, metabolically inactivated hepatocytes). Format: in vitro ADME. The note with it: flag for stability failure in hepatocyte clearance assay controls (1 or Fst = fail, 0 = pass). Summed up:
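Test compound at 1 μM incubated at 37 °C with shaking in complete William's medium E, either cell-free or with metabolically inactivated hepatocytes, then quenched with ice-cold acetonitrile for quantitative analysis.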

Data set [2] can be described thus: Chemical stability in plasma over the UC assay time course (T5hr/T1hr). The note with it: both, human, plasma.
For data set [3], the system named is human plasma. The data set is described as above. Particulars: for PPB_Stab_Fail: flag for stability failure in the plasma protein binding assay (1 = fail, 0 = pass); for Fstable.Med: median fraction stable in plasma, UC assay Level4.
The nature of data set [4]: Ultracentrifugation (UC) plasma protein binding assay, fraction unbound in plasma (fup). Particulars: both, human, plasma.
Data set [5] has as its system human plasma. Described as above. The note with it: for Fup.Med: median fraction unbound in plasma; for Fup.Med / Fup.point: UC assay Level4; for Fup.point: point estimate of fraction unbound in plasma.

By share remaining is commonly meant what is left of the initial amount, in per cent. A lower share remaining goes with a greater loss. One may read the fraction unbound as free concentration divided by total concentration. High values mean much free substance, low ones little free substance. The compound `FC(F)C(F)(F)COCC1CO1` (centres unmarked) [((2,2,3,3-Tetrafluoropropoxy)methyl)oxirane] returned a Hep_Stab_Fail in data set [1] of 1. In addition, in data set [2], the fraction remaining at 5 h, 10 μM came to 66%. In the data set with human plasma [3], the PPB_Stab_Fail came to 0 and the Fstable.Med was 0.531. Moreover, the fraction unbound at 5 h, 10 μM in data set [4] (Mean fu, fraction unbound in human plasma, ultracentrifugation, some values based on eLOQ) was determined as 0.841. Also, in the data set with human plasma [5], the Fup.Med amounted to 0.63 and the Fup.point is given as 0.762.
In the case of `NC(O)(C(F)(F)F)C(F)(F)F` [2-Aminohexafluoropropan-2-ol], the Hep_Stab_Fail in data set [1] amounted to 1. Further, the amount remaining at 5 h, 10 μM in data set [2] was 76%. The “Stability (T5hr/ T1hr), Run-specific Avg” value with human plasma [3] (average of one UC run (run date in line above)) is 0.77 and 0.751. In the data set on human plasma [3], this compound displayed a PPB_Stab_Fail of 0 and a Fstable.Med of 0.225. Moreover, the “Mean Stability” value in the data set on human plasma [3] (mean T5hr/T1hr ratio over all replicates and runs, plasma) was 0.76. Also, in the data set on human plasma [3] (single replicate of one UC run), the “Stability (T5hr/ T1hr), replicates A, B, C” value is 0.60 and 0.78 and 0.93 and 0.61 and 0.77 and 0.88. The compound further yielded a fraction unbound at 5 h, 10 μM in data set [4] (Fraction Unbound (fu), Run-specific Avg, average of one UC run (run date in line above)) of 0.993. Further, in data set [4] (Fraction Unbound (fu), replicates A, B, C, single replicate of one UC run (aqueous fraction / Time 5 hr)), the fraction unbound at 5 h, 10 μM was 1. Further, the fup in the data set on human plasma [5] (human plasma, 10 μM, ultracentrifugation, 37 °C) was determined as 1. In the data set on human plasma [5], the Fup.Med is given as 0.867 and the Fup.point is reported as 0.963. Also, the “Fraction Unbound (fu), replicates A, B, C” value in the data set on human plasma [5] (single replicate of one UC run (aqueous fraction / Time 5 hr)) was 0.90 and 0.77 and 0.85.
